Each structure is given as a SMILES string.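 These data come from cells grown in 96-well plates and exposed to compound for 48 hours at five concentrations. GI50 marks 50% less growth. TGI is the concentration that stops growth completely.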

What all share (experiment): NCI-60 cell line screen, 48 h
In test [1] the test system is BT-549 breast.
Test [2] deals with CCRF-CEM leukemia.
Test [3] has as its system HCC-2998 colon.
Test [4] concerns OVCAR-8 ovarian.
Test [5] concerns SK-MEL-28 melanoma.
The subject of test [6] is SN12C renal.
Test [7] concerns T-47D breast.
Test [8] relates to RPMI-8226 leukemia.

`Cc1cc2c(cc1Cl)SC(NNc1cnc3ccccc3n1)=NS2(=O)=O`: the TGI in test [1], in test [2], in test [3], in test [4], in test [5] and in test [6] was > 100 µM in each case. In addition, the TGI in test [7] is > 100 µM.

`CN(C)c1nc(=NCc2ccccn2)ss1`: the TGI in test [2], in test [3], in test [4], in test [8], in test [5] and in test [6] was > 10 µM throughout. For the same compound, in test [7], the TGI is > 10 µM.

In the case of `CCOC(=O)c1c(NC(=S)Nc2ccc(C)cc2)sc2c1CCN(C)C2`, the TGI in test [1], in test [2], in test [4], in test [8], in test [6] and in test [7] was > 100 µM each time.

With `CC1(C)[C@@H]2C[C@H]1c1cnc(-c3ccccn3)cc1[C@H]2C(O)[C@@H]1c2cc(-c3ccccn3)ncc2[C@H]2C[C@@H]1C2(C)C` (stereo partly specified), the TGI in test [1] stood at 3.8 µM; in test [3], 20.8 µM; in test [4], 3.1 µM; in test [8], 1.93 µM; in test [5] it was 29.7 µM; in test [6], 1.89 µM. Further, the TGI in test [7] was 53.1 µM.

`COc1cc2c3c(n(C)c(=O)c2cc1OC)-c1cc2c(cc1/C3=C/CCCCBr)OCO2`: the TGI was > 100 µM in test [1]; 7.44 µM in test [2]; > 100 µM in test [4]; 64.5 µM in test [8]; > 100 µM in test [5]; > 100 µM in test [6]. The TGI in test [7] was > 100 µM. Also, the GI50 in test [6] was > 100 µM.

For `c1ccc(-c2ccc(N=NN3CCCC3)cc2)cc1`, the TGI in test [1], in test [2], in test [4], in test [8], in test [6] and in test [7] was > 100 µM throughout.

On to `COC(=O)c1sc2ncc3c(c2c1N)CC(C)CC3` (stereo unspecified), for which the TGI in test [1], in test [2], in test [3], in test [8], in test [5] and in test [6] was > 100 µM in each case. Further, the TGI in test [7] was > 100 µM.

Consider `C(=N/Nc1ccc(-c2nc3ccccc3[nH]2)cc1)/c1c(-c2ccccc2)[nH]c2ccccc12`, for which the TGI was > 100 µM in test [2]; 1.22 µM in test [3]; > 100 µM in test [4]; 0.82 µM in test [8]; > 100 µM in test [5]; > 100 µM in test [7].

As for `NNC(=O)c1cccc2c1Oc1ccccc1S2`, the TGI in test [1], in test [2], in test [3], in test [4], in test [8] and in test [5] was > 100 µM throughout. Further, the TGI in test [7] is > 100 µM.

In the case of `N/C(CSCCSC/C(N)=N/O)=N\O`, the TGI in test [1], in test [2], in test [3], in test [8], in test [5] and in test [6] was > 100 µM each time. In addition, the TGI in test [7] was > 100 µM.

As to `CCNC(=S)N/N=C/c1ccccn1`, the TGI in test [1] is 87.6 µM; in test [2], > 100 µM; in test [4], > 100 µM; in test [5] it was > 100 µM; in test [6], 41 µM; in test [7] it was > 100 µM.

For the compound `Cc1cn(C2CC(OC(c3ccccc3)(c3ccccc3)c3ccccc3)C(COC(c3ccccc3)(c3ccccc3)c3ccccc3)O2)c(=O)[nH]c1=O` (stereo unspecified), the TGI in test [1] was 98.4 µM; in test [2], > 100 µM; in test [3] it was > 100 µM; in test [4] it was > 100 µM; in test [5] it was > 100 µM; in test [6], > 100 µM.

In the case of `CC12CCC(C/C1=N\NC(N)=O)C2(C)C` (stereo unspecified), the TGI in test [1], in test [2], in test [4], in test [8], in test [5] and in test [6] was > 100 µM each time. The TGI in test [7] is > 100 µM.

Regarding `COP(=O)(CC(=O)C1OC(OCc2ccccc2)C(OCc2ccccc2)C(OCc2ccccc2)C1OCc1ccccc1)OC` (stereo unspecified), the TGI in test [1] is 71.2 µM; in test [2], > 100 µM; in test [3], 19.2 µM; in test [4], > 100 µM; in test [5], > 100 µM; in test [6], 11.2 µM. Moreover, the TGI in test [7] is 41.9 µM.

For the compound `CC1=NC(C)(C)N(O)C1(C)C`, the TGI in test [2], in test [3], in test [4], in test [8], in test [5] and in test [6] was > 100 µM in each case. Moreover, the TGI in test [7] was > 100 µM.

Regarding `COc1cc(-c2c3c(cc4c2OCO4)[C@@H](Nc2ccc4c(c2)Cc2cc(N[C@@H]5c6cc7c(cc6C(c6cc(OC)c(O)c(OC)c6)[C@H]6C(=O)OC[C@H]56)OCO7)ccc2-4)[C@H]2COC(=O)[C@@H]2C3)cc(OC)c1O` (stereo partly specified), the TGI in test [1] was 94.5 µM; in test [2], > 100 µM; in test [4], > 100 µM; in test [8], > 100 µM; in test [5], 70 µM; in test [6], > 100 µM. In addition, the TGI in test [7] is > 100 µM.

Turning to `COc1cc(/C=C/c2cc(=O)cc(/C=C/c3ccc(O)c(OC)c3)o2)ccc1O`, the TGI in test [1] was > 100 µM; in test [3], > 100 µM; in test [4] it was > 100 µM; in test [8], > 20.7 µM; in test [5], > 100 µM; in test [6], > 100 µM. Besides, in test [7], the TGI is > 93.3 µM.

Regarding `Cc1ncc([N+](=O)[O-])n1CCNC(=O)CCCCn1ccnc1[N+](=O)[O-]`, the TGI in test [1], in test [2], in test [3], in test [4], in test [6] and in test [7] was > 100 µM in each case.

The values are drawn from PubChem BioAssay (NCI).
